Assay: wn = mass fraction of the nth substance listed
Conditions: Liquid

CN(CCO)CCO [N-methyldiethanolamine] + O
Conditions	mass density [kg/m3]
298.31 K, 205 kPa, w1 = 0.3	1023.7
298.31 K, 506 kPa, w1 = 0.3	1023.8
298.31 K, 1006 kPa, w1 = 0.3	1024
298.31 K, 2006 kPa, w1 = 0.3	1024.3
298.32 K, 5003 kPa, w1 = 0.3	1025.5
298.33 K, 206 kPa, w1 = 0.15	1009.9
298.33 K, 508 kPa, w1 = 0.15	1010
298.33 K, 1008 kPa, w1 = 0.15	1010.2
298.33 K, 2008 kPa, w1 = 0.15	1010.6
298.34 K, 5006 kPa, w1 = 0.15	1011.9
